Laboratory results from ChEMBL document CHEMBL1201862, “PubChem BioAssay data set” (2004).
Blank lines part the entries; values can stand above or below the molecule they belong to. Calls of active or inactive are those of the source.

Experiments:
Type in all cases: functional
[1] = molecular target: T1, Kappa-type opioid receptor (Homo sapiens, UniProt P41145)
[2] = molecular target: T2, Delta-type opioid receptor (Homo sapiens, UniProt P41143); assay: HTS Image-Based Screen for Agonists of the DOR Receptor. [Related pubchem assays (depositor defined):AID1777, AID1786, AID2133]
Mu-type opioid receptor [3] = molecular target: T3, Mu-type opioid receptor (Homo sapiens, UniProt P35372); assay: mu opioid receptor blockers – image-based, SAR follow-up (AID 2420);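 further: compounds added before stimulation of receptor with agonist DAMGO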
[4] = molecular target: T1, Kappa-type opioid receptor; assay: kappa opioid receptor activation potency – imaging, image-based, SAR follow-up (AID 2359)
[5] = molecular target: T2, Delta-type opioid receptor; assay: HTS Image-Based Screen for Antagonists of the DOR Receptor. [Related pubchem assays (depositor defined):AID1777, AID1785, AID1786, AID2133]
[6] = molecular target: T1, Kappa-type opioid receptor; assay: kappa opioid receptor blockers, image-based, SAR follow-up (AID 2348)
[7] = molecular target: Voltage-dependent T-type calcium channel subunit alpha-1H (Homo sapiens, UniProt O95180);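 further: channel activity triggered by adding a high calcium stimulation buffer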
[8] = molecular target: T2, Delta-type opioid receptor; assay: DOR agonists, SAR follow-up, image-based (AID 2370)
Mu-type opioid receptor [9] = molecular target: T3, Mu-type opioid receptor; assay: HTS Image-Based Screen for Agonists of the MOR Receptor. [Related pubchem assays (depositor defined):AID1777, AID1785, AID1786, AID2133]
[10] = molecular target: T1, Kappa-type opioid receptor; assay: SAR analysis of small molecule agonists of the kappa opioid receptor via a luminescent beta-arrestin assay. [Related pubchem assays (depositor defined):AID1777, AID1786, AID1966, AID2133, AID2136, AID2348, AID2352, AID2357, AID2359, AID2370, AID2420, AID2478, AID2491, AID2492, AID2493, AID2497, AID2498, AID2500, AID449737, AID488822, AID488842]
Mu-type opioid receptor [11] = molecular target: T3, Mu-type opioid receptor; assay: mu opioid receptor activators, image-based, SAR follow-up (AID 2352)
[12] = molecular target: T1, Kappa-type opioid receptor; remark: listed apart in the source
[13] = molecular target: T2, Delta-type opioid receptor; assay: delta opioid receptor blockers – image-based, SAR follow-up (AID 2357)
Cannabinoid receptor 1 [14] = molecular target: T4, Cannabinoid receptor 1 (Homo sapiens, UniProt P21554); assay: SAR analysis of antagonists of the Cannabinoid Receptor 1 using an Image-Based Assay - Set 2. [Related pubchem assays (depositor defined):AID2013, AID2026]
[15] = molecular target: T5, G-protein coupled receptor 55 (Homo sapiens, UniProt Q9Y2T6); assay: inhibition of LPI-stimulated GPR55 beta-arrestin translocation – imaging, U2OS, beta-arrestin-GFP, LPI agonist, primary screen (AID 2013);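 further: antagonist potency measured as reduced agonist-driven arrestin aggregation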
[16] = molecular target: T6, Heat shock factor protein 1 (Mus musculus, UniProt P38532); assay: decrease of HSF1-responsive luciferase luminescence – cell-based, NIH3T3, dose retest, confirmation (AID 2382);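 further: NIH3T3 fibroblasts with HSF1-driven luciferase reporter stressed by proteasome inhibitor MG132; luminescence from HSF1-driven luciferase expression after 8 hours of MG132 stress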
T6 sequence (P38532 whole entry): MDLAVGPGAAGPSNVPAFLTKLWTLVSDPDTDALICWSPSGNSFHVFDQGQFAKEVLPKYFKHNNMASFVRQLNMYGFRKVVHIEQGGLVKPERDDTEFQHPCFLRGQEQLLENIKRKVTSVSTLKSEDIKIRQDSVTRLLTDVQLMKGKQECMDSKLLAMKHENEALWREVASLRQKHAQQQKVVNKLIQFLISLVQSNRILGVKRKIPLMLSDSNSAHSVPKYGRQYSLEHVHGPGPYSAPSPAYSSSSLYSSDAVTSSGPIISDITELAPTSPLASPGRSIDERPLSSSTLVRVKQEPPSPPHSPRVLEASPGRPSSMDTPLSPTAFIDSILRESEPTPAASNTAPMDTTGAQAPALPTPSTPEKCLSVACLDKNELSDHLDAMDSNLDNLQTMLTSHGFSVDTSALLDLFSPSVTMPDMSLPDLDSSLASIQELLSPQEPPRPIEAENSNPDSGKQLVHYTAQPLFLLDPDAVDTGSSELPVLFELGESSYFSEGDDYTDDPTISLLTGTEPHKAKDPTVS

Cannabinoid receptor 2 [17] = molecular target: T7, Cannabinoid receptor 2 (Homo sapiens, UniProt P34972); assay: SAR analysis of antagonists of the Cannabinoid Receptor 2 using an Image-Based Assay. [Related pubchem assays (depositor defined):AID2013, AID2026]
[18] = molecular target: T8, G-protein coupled receptor 35 (Homo sapiens, UniProt Q9HC97); assay: SAR analysis of Antagonists of the GPR35 Receptor using an Image-Based Assay - Set 3. [Related pubchem assays (depositor defined):AID2013, AID2026]
Cannabinoid receptor 2 [19] = molecular target: T7, Cannabinoid receptor 2; assay: SAR analysis of agonists of the Cannabinoid Receptor 2 using an Image-Based Assay. [Related pubchem assays (depositor defined):AID2013, AID2026]
[20] = molecular target: T5, G-protein coupled receptor 55; assay: blockade of LPI-induced GPR55 arrestin translocation – imaging, U2OS, beta-arrestin-GFP, LPI agonist, set 2, SAR follow-up (AID 2820)
Cannabinoid receptor 1 [21] = molecular target: T4, Cannabinoid receptor 1; assay: SAR analysis of agonists of the Cannabinoid Receptor 1 using an Image-Based Assay - Set 2. [Related pubchem assays (depositor defined):AID2013, AID2026]
[22] = molecular target: T8, G-protein coupled receptor 35; assay: SAR analysis of Agonists of the GPR35 Receptor using an Image-Based Assay - Set 2. [Related pubchem assays (depositor defined):AID2013, AID2026]

T3 sequence (P35372 whole entry): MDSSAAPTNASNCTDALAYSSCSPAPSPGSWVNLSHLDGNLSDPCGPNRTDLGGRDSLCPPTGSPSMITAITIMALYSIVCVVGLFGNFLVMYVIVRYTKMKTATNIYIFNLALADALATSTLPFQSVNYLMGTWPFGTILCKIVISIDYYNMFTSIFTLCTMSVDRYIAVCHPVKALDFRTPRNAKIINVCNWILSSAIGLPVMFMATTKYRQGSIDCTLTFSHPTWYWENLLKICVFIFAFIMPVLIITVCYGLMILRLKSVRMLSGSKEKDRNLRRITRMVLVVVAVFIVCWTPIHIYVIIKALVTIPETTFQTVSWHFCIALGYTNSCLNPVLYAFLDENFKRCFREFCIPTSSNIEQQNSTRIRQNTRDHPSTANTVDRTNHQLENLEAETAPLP
T1 sequence (P41145 whole entry): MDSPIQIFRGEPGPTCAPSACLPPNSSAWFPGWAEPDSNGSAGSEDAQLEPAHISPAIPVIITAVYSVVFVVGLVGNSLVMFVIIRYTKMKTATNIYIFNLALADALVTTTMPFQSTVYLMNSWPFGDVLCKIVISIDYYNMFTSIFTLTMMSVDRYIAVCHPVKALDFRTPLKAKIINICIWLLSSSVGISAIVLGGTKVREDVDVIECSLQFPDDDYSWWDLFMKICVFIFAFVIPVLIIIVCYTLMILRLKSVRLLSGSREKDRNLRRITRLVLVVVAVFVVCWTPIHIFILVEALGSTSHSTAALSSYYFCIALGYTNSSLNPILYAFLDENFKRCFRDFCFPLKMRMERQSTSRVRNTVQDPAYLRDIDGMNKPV
T2 sequence (P41143 whole entry): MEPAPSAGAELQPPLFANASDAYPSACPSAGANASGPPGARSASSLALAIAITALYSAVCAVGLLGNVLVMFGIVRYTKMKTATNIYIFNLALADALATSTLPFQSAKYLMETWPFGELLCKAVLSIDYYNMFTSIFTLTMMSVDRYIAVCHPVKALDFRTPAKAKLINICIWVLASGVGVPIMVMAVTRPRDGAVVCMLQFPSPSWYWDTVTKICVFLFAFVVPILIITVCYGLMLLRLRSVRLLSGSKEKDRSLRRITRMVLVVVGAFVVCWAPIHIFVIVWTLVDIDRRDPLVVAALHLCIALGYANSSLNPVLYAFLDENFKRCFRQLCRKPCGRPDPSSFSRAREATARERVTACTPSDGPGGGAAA
T8 sequence (Q9HC97 whole entry): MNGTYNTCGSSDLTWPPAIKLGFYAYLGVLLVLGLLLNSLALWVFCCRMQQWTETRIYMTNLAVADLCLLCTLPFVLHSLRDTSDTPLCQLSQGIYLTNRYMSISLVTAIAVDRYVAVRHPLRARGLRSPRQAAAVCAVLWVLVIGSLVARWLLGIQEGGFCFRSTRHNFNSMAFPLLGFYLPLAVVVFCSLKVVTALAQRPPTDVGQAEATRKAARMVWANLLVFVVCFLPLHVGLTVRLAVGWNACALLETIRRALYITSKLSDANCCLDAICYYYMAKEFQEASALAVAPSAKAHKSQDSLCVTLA
T5 sequence (Q9Y2T6 whole entry): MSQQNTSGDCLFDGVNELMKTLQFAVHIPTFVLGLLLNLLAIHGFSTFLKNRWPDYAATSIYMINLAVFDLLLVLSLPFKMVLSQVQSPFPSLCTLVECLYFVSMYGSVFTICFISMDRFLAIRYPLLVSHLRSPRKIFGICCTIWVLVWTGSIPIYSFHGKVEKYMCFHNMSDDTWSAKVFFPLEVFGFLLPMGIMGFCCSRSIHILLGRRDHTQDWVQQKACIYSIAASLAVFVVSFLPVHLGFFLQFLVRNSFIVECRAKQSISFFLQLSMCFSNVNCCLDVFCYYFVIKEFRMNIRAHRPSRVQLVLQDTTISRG
T4 sequence (P21554 whole entry): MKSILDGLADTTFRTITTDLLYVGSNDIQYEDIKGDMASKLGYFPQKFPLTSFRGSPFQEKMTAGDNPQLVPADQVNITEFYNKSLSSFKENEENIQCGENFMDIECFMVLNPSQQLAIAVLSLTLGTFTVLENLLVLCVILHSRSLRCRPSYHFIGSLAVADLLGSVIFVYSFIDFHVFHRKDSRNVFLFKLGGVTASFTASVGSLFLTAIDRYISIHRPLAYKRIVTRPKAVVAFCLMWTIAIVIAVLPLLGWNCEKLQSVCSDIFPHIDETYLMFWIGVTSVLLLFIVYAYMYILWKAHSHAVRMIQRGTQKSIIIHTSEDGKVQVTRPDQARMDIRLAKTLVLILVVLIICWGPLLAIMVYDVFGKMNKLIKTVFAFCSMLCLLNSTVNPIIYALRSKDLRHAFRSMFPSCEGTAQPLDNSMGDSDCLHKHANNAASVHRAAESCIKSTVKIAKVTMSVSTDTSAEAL
T7 sequence (P34972 whole entry): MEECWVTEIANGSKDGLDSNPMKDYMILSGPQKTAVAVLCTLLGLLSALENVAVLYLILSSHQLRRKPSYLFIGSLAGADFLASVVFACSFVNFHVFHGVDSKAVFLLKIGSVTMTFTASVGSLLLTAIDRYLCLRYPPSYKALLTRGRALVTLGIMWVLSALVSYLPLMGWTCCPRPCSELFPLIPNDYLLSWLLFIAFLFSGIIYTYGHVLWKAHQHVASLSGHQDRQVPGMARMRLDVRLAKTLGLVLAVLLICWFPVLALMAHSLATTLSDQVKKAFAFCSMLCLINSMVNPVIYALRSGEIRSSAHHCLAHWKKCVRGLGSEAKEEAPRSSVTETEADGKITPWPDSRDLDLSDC
Chain of Voltage-dependent T-type calcium channel subunit alpha-1H (O95180 whole entry): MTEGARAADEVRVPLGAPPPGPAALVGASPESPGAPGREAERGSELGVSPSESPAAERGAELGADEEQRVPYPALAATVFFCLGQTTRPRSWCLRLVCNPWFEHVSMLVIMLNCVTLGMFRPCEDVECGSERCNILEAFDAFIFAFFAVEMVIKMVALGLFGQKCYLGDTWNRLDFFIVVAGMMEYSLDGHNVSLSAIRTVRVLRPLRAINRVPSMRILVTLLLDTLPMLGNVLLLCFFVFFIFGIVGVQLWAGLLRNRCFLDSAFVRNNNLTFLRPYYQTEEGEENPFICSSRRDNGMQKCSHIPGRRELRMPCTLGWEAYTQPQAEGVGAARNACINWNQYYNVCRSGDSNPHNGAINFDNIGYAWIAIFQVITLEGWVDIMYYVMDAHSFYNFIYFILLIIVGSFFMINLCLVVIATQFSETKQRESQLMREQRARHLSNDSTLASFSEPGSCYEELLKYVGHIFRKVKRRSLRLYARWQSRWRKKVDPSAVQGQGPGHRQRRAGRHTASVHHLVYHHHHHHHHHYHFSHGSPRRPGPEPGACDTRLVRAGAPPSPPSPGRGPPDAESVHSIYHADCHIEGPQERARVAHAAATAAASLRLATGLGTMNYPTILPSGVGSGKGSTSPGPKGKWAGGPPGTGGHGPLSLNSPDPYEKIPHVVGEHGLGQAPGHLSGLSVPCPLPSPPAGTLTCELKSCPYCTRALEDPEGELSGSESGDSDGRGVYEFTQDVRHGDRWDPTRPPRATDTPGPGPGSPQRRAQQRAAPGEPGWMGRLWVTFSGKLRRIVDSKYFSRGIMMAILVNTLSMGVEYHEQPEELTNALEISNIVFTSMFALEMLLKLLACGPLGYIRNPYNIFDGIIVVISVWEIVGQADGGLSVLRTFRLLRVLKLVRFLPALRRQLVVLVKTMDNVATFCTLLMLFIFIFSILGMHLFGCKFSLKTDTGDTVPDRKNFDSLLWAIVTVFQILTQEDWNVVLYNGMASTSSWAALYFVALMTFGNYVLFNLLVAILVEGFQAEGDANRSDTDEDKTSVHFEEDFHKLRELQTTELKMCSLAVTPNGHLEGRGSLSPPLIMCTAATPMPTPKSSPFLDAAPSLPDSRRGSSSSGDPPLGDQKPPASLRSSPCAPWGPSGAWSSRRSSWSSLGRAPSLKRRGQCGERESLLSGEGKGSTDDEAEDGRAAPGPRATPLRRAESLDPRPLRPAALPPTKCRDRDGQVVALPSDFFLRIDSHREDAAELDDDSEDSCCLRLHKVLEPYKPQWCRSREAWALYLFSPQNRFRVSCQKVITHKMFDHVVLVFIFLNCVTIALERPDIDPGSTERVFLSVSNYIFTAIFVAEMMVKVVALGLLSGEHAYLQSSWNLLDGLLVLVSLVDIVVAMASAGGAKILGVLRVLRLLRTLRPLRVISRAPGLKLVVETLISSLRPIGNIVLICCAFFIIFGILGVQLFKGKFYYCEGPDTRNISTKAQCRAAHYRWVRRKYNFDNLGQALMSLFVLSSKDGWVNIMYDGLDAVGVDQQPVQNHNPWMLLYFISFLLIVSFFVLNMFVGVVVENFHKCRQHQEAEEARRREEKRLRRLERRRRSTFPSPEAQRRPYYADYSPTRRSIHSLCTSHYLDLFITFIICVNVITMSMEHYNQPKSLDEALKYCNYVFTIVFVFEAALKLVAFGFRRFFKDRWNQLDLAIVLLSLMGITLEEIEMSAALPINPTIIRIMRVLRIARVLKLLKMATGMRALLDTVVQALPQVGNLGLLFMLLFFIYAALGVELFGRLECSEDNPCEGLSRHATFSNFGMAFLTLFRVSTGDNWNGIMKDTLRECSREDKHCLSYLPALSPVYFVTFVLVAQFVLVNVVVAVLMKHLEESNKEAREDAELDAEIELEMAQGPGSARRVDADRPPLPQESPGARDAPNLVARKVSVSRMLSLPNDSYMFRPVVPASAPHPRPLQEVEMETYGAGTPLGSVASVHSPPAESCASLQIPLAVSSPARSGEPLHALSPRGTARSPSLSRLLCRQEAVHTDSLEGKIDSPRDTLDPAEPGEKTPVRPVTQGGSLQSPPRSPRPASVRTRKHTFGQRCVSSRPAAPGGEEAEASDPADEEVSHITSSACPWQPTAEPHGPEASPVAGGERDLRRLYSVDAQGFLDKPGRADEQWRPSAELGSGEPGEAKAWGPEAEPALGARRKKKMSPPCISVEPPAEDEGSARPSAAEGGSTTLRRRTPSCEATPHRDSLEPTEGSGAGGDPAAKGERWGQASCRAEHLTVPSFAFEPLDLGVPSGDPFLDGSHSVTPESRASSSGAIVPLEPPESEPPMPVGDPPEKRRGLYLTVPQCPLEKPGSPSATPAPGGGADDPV

EC50 [1]: 11.9 µM
EC50 [2]: > 32 µM (inactive)
IC50 (Mu-type opioid receptor [3]): > 32 µM (inactive)
EC50 [4]: 16.3 µM (inactive)
IC50 [5]: > 32 µM (inactive)
IC50 [6]: > 32 µM (inactive)
EC50 [7]: 7.53 µM (active)
EC50 [8]: > 32 µM (inactive)
EC50 (Mu-type opioid receptor [9]): > 32 µM (inactive)
EC50 [10]: > 10 µM (inactive)
EC50 (Mu-type opioid receptor [11]): > 32 µM (inactive)
EC50 [12]: 20.3 µM
IC50 [13]: > 32 µM (inactive)
SMILES: COc1cc(Cl)c(C)cc1NC(=O)CSc1nnc(-c2ccccn2)n1Cc1ccco1

IC50 (Cannabinoid receptor 1 [14]): 22 µM (inactive)
IC50 [15]: 1.74 µM (active)
EC50 [16]: > 195 µM (not active)
IC50 (Cannabinoid receptor 2 [17]): > 32 µM (inactive)
IC50 [18]: > 32 µM (inactive)
EC50 (Cannabinoid receptor 2 [19]): > 32 µM (inactive)
IC50 [20]: 506 nM (active)
EC50 (Cannabinoid receptor 1 [21]): > 32 µM (inactive)
EC50 [22]: > 32 µM (inactive)
SMILES: CCN1C(=O)C(c2ccc(O)cc2)(c2ccc(O)cc2)c2ccccc21
